What all share (details): biochemical
The target in one experiment is PDGFRα (Homo sapiens (Human), UniProt P16234). Put plainly: Inhibition of PDGFRα kinase activity (HTRF KinEASE-TK). Put shortly:
(§1)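 Recombinant kinases (2 nM CSF1R and c-Kit, 10 nM PDGFRα/β, 2× working) preincubated 1 h with compound in 50 mM HEPES pH 7.4, 5 mM MgCl2 (c-Kit) or 10 mM (others), 2 mM MnCl2; 2× ATP: c-Kit 16 μM, PDGFRα 1 μM, PDGFRβ 40 μM, CSF1R 20 μM. 120 min reaction at rt; TR-FRET 665/620 nm; IC50 by 4-parameter fit.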
In general terms: TR-FRET usually uses a lanthanide donor and a delayed reading to cut background.

A further experiment concerns the target PDGFRβ (Homo sapiens (Human), UniProt P09619). Put plainly: Inhibition of PDGFRβ kinase activity (HTRF KinEASE-TK). In outline: as §1
The target of another experiment is FLT3 (Homo sapiens (Human), UniProt P36888). In words: Inhibition of FLT3 kinase activity (HTRF KinEASE-TK). It is filed as biochemical. As for the experimental part: Inhibition of c-Kit, PDGFRα, PDGFRβ, CSFIR and FLT3 Kinase Activity
Sequence of FLT3 (P36888 27-993): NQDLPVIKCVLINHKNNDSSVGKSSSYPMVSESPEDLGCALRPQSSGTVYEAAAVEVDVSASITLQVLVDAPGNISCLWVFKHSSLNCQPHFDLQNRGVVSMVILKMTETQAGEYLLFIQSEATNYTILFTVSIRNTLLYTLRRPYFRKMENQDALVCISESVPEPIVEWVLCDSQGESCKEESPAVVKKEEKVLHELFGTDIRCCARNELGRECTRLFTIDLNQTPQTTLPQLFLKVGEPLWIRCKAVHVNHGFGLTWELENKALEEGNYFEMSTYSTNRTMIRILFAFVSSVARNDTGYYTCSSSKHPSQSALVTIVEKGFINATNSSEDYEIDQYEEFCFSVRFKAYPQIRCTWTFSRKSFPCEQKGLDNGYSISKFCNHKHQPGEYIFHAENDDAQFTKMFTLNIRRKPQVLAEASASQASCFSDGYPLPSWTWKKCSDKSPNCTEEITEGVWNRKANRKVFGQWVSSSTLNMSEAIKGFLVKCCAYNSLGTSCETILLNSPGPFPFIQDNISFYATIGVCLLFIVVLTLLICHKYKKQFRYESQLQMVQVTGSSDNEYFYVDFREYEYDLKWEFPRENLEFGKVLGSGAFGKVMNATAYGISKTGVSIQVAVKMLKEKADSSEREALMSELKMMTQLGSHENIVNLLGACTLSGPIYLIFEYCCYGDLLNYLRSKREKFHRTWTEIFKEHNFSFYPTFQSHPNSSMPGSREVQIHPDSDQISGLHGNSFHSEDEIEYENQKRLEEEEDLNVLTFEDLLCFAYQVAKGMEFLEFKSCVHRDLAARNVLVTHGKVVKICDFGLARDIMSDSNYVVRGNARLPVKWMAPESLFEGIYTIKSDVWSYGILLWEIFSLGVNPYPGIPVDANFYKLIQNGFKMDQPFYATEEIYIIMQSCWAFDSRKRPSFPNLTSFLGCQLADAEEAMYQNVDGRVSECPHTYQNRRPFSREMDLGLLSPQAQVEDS
Compounds were evaluated to determine the potency with which they inhibit the kinase activity of the following panel of tyrosine kinases: c-Kit (SignalChem, Product #: K06-11BG), PDGFRα (SignalChem, Product #: P12-18G), PDGFRβ (SignalChem, Product #: P13-11G), CSFIR (SignalChem, Product #: C74-11G) and FLT3 (Invitrogen, Product #: PR4666C). Activity was determined as a function of phosphorylated biotinylated TK peptide generated by the transfer of phosphate from ATP as measured by the use of the HTRF KinEASE-TK assay kit (Cisbio, Product #: 62TKOPEJ). Levels of phosphorylated biotinylated TK peptide (Part 61TKOBLC of KinEASE assay kit) are quantified by its capture by phosphor-TK-Antibody-Cryptate (Part of KinEASE assay kit) and XL665-labeled Streptavidin (Part 610SAXLG of KinEASE assay kit) followed by measurement of Time-Resolved Fluorescence Resonance Energy Transfer (TR-FRET) signal. On the day of the assay, compounds were solubilized in DMSO and dispensed into a 384-well white Opti-plate (PerkinElmer, catalog #6007290) to generate a 22 point 1:2 titration. Enzyme solution was prepared for each of the tyrosine kinases in 50 mM HEPES, pH 7.4, 5 mM MgCl2 for c-Kit or 10 mM MgCl2 for FLT3, CSFIR, PDGFRa and PDGFRβ, 2 mM MnCl2, 0.01% Brij-35 and 0.01% BSA. Working enzyme concentrations were prepared for c-Kit at 2 nM (2×), PDGFRa and PDGFRß at 10 nM (2×), CSFIR at 2 nM (2×) and FLT3 at 0.4 nM (2×). Five microliters of enzyme dilution of each tyrosine kinase were added to their respective 384-well white Opti-plate pre-dispensed with compound and allowed to incubate for 1 h at rt. Utilizing the same enzyme buffer recipe, 2x substrate mixes were prepared for each enzyme as follows: For c-Kit, 1.6 μM (2×) TK substrate and 16 μM (2×) ATP (Promega, catalog #V915). For PDGFRα, 3.2 μM TK substrate and 1 μM ATP. For PDGFRβ, 3.2 μM TK substrate and 40 μM ATP. For CSFIR, […] TK substrate and 20 μM ATP. For FLT3, 3.2 μM TK substrate and 100 μM ATP. Reactions were initiated by addition of 5 μL of the respective 2x substrate mix to each well of the plates containing the respective tyrosine kinase enzymes and were allowed to proceed for 120 minutes at rt, except for FLT3, the reaction time is 45 min. Following the reaction, 10 μL of detection mix consisting of 0.2 μM (2×) of Streptavidin-XL665 and 2 μM (2×) of TK-Antibody-Cryptate prepared in detection buffer (Part 62SDBRDF of KinEASE assay kit) was added and then allowed to incubate for 60 min. The TR-FRET signal was quantified by measuring the ratio of emission at 665 nm to 620 nm after excitation at 320 nm by reading on a PerkinElmer Envision multimode reader. Compound potencies (IC50 values) were determined using a standard 4-parameter non-linear regression fit.

Another experiment deals with c-Kit (Homo sapiens (Human), UniProt P10721). Put plainly: Inhibition of c-Kit kinase activity (HTRF KinEASE-TK). The class given is biochemical. Put shortly:
as §1

The next experiment concerns the target CSF1R (Homo sapiens (Human), UniProt P07333). Put plainly: Inhibition of CSF1R kinase activity (HTRF KinEASE-TK). Put shortly: as §1

Where only a bound is given, the exact number is not on record here.

Sequence of c-Kit (P10721 26-976): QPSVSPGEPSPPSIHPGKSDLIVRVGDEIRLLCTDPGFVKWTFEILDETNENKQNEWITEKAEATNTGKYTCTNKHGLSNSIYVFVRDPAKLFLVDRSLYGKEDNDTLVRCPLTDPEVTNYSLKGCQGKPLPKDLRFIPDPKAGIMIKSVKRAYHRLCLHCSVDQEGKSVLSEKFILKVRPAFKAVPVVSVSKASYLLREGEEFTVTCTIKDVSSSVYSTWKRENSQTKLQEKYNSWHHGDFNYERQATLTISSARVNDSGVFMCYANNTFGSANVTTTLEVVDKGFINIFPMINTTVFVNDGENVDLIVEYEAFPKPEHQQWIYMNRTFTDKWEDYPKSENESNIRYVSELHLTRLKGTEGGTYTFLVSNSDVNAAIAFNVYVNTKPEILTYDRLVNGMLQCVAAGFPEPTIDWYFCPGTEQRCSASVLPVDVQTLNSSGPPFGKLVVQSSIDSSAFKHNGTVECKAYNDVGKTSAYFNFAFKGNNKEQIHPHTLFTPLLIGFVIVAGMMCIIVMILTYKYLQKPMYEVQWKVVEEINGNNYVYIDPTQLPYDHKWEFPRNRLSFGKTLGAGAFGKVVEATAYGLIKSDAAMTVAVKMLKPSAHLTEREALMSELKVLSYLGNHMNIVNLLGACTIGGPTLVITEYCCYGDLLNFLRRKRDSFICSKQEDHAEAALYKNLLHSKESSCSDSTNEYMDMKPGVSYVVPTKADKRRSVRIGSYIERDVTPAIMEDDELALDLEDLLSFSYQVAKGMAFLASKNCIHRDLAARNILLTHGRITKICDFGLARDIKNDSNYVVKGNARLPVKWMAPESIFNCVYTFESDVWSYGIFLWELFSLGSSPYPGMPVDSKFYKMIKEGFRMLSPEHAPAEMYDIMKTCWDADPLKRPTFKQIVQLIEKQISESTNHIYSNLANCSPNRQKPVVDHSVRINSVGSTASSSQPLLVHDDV
Sequence of PDGFRβ (P09619 33-1106): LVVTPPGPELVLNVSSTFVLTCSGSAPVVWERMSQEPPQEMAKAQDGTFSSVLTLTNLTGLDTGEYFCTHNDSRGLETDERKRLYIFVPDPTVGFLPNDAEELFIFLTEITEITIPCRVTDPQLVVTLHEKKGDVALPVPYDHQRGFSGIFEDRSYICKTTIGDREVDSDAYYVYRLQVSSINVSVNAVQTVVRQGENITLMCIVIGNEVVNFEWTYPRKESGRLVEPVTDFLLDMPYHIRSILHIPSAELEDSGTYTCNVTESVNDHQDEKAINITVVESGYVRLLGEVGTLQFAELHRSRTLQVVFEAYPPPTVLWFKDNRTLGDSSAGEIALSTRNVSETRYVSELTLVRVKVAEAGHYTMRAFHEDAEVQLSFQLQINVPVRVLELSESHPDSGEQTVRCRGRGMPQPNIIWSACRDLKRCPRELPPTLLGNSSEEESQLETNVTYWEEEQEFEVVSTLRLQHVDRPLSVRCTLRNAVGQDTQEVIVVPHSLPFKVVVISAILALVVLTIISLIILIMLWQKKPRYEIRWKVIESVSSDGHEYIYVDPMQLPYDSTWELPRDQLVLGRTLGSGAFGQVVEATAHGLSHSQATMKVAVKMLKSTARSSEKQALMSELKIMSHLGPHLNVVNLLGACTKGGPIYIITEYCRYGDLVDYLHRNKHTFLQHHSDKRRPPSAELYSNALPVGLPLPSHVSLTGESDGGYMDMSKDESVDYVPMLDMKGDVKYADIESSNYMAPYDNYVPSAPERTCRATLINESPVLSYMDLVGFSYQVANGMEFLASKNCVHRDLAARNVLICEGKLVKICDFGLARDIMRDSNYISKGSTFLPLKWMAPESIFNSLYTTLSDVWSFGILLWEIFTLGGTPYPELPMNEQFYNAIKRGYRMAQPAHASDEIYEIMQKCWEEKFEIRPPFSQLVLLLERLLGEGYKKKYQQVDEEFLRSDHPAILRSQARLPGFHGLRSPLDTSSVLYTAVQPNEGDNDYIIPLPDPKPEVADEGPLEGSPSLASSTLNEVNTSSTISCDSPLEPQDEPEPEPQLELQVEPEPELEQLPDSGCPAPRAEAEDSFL
Sequence of CSF1R (P07333 20-972): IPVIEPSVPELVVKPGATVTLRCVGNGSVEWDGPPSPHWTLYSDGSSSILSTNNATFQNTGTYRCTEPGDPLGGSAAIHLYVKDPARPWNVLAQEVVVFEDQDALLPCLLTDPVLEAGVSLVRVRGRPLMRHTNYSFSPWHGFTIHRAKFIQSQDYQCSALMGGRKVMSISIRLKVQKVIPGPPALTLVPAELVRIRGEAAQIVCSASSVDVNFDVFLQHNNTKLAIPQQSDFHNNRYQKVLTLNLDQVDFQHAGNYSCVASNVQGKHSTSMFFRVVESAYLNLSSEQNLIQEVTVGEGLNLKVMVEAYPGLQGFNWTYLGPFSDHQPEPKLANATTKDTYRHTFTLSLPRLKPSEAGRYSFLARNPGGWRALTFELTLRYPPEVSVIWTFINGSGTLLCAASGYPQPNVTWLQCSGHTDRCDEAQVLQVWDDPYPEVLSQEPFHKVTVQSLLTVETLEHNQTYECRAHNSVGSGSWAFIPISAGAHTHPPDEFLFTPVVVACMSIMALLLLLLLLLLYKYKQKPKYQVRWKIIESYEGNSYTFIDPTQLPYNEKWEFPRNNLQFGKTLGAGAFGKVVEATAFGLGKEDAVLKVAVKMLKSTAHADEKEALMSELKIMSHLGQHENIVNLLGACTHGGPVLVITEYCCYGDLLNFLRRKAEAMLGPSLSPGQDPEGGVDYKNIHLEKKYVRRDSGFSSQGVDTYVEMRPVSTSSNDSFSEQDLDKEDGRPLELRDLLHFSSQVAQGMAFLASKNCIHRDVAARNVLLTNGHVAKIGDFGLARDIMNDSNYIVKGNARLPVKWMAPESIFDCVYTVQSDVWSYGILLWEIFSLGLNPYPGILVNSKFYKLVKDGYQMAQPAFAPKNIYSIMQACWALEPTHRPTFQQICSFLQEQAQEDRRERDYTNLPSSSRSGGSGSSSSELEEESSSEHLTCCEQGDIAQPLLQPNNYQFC
Sequence of PDGFRα (P16234 24-1089): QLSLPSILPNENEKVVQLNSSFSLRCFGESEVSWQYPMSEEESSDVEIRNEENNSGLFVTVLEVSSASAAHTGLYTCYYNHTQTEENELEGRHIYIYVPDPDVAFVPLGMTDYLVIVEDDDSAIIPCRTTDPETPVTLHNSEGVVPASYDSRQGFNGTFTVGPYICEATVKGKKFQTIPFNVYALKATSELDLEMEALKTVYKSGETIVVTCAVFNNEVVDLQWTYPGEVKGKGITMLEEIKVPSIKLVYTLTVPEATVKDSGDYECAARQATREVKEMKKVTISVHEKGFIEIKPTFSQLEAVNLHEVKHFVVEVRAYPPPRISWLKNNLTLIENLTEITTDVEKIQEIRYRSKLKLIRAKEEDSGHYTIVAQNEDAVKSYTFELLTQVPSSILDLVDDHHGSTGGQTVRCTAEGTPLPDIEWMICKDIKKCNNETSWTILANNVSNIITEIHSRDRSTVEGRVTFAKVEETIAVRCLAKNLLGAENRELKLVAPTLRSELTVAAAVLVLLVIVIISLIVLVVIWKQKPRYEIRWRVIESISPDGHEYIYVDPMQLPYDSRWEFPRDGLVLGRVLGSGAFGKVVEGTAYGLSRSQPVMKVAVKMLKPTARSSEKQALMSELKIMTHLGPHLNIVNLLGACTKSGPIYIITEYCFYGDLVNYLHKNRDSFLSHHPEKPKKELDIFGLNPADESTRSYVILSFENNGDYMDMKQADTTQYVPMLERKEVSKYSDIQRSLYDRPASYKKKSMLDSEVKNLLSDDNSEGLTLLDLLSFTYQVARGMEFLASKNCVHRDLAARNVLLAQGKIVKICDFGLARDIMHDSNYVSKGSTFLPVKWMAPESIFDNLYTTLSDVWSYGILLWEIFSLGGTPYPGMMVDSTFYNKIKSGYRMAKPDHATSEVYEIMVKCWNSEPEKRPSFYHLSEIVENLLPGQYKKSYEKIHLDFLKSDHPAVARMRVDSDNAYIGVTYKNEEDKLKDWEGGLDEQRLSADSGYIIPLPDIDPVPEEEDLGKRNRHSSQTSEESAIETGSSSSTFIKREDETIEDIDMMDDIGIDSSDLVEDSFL

One may read the IC50 as the midpoint of a concentration-inhibition curve. Read a high IC50 as weaker potency in that assay. For `Cc1cc(F)c(C(=O)Nc2ccc(OC3CC3)cn2)cc1NC(=O)c1cnc(NC(=O)N2CCC2)s1` [Example 6, 2-(Azetidine-1-carbonylamino)-N-[5-[(5-cyclopropyloxypyridin-2-yl)carbamoyl]-4-fluoro-2-methylphenyl]-1,3-thiazole-5-carboxamide], the IC50 was under 100 nM on PDGFRα; under 100 nM at PDGFRβ; over 1000 nM on FLT3; under 100 nM at c-Kit; under 100 nM against CSF1R.

With `Cc1ncc(C(=O)Nc2cc(C(=O)Nc3ccc(C(F)(F)F)cn3)c(F)cc2C)s1` [Example 14, N-[4-Fluoro-2-methyl-5-[[5-(trifluoromethyl)pyridin-2-yl]carbamoyl]phenyl]-2-methyl-1,3-thiazole-5-carboxamide], the IC50 is over 1000 nM on PDGFRα (HTRF KinEASE-TK); over 1000 nM at PDGFRβ (HTRF KinEASE-TK); over 1000 nM against FLT3 (HTRF KinEASE-TK); under 100 nM against c-Kit (HTRF KinEASE-TK); over 1000 nM on CSF1R (HTRF KinEASE-TK).

As for `Cc1ncc(C(=O)Nc2cc(C(=O)Nc3ncc(C4CC4)cn3)c(F)cc2C)s1` [Example 44, NV-[5-[(5-cyclopropylpyrimidin-2-yl)carbamoyl]-4-fluoro-2-methylphenyl]-2-methyl-1,3-thiazole-5-carboxamide], the concentration for half-maximal inhibition (IC50) against PDGFRα (HTRF KinEASE-TK) is over 1000 nM; at PDGFRβ (HTRF KinEASE-TK) it was over 1000 nM; on FLT3 (HTRF KinEASE-TK), over 1000 nM; against c-Kit (HTRF KinEASE-TK), under 100 nM; on CSF1R (HTRF KinEASE-TK), over 1000 nM.

As to `Cc1ncc(C(=O)Nc2cc(C(=O)Nc3ccn(C4CCC4)n3)c(F)cc2C)s1` [Example 61, N-[5-[(1-Cyclobutylpyrazol-3-yl)carbamoyl]-4-fluoro-2-methylphenyl]-2-methyl-1,3-thiazole-5-carboxamide], the IC50 against PDGFRα (HTRF KinEASE-TK) is over 1000 nM; on PDGFRβ (HTRF KinEASE-TK), over 1000 nM; against FLT3 (HTRF KinEASE-TK), over 1000 nM; against c-Kit (HTRF KinEASE-TK), under 100 nM; at CSF1R (HTRF KinEASE-TK), over 1000 nM.

Turning to `Cc1cc(F)c(C(=O)N[C@H]2CCOC2)cc1NC(=O)c1cnc(NC(=O)N2CCOCC2)s1` [Example 105, N-[5-[[4-fluoro-2-methyl-5-[[(3S)-oxolan-3-yl]carbamoyl]phenyl]carbamoyl]-1,3-thiazol-2-yl]morpholine-4-carboxamide], the IC50 against PDGFRα (HTRF KinEASE-TK) was over 1000 nM; on PDGFRβ (HTRF KinEASE-TK), over 1000 nM; against FLT3 (HTRF KinEASE-TK) it was over 1000 nM; against c-Kit (HTRF KinEASE-TK) it was under 100 nM; at CSF1R (HTRF KinEASE-TK), over 1000 nM.

On to `Cc1cc(F)c(C(=O)Nc2ccc3c(n2)COC3)cc1NC(=O)c1cnc(N)s1` [Example 120, 2-Amino-N-[5-(5,7-dihydrofuro [3,4-b]pyridin-2-ylcarbamoyl)-4-fluoro-2-methylphenyl]-1,3-thiazole-5-carboxamide], for which the IC50 against PDGFRα (HTRF KinEASE-TK) was over 1000 nM; on PDGFRβ (HTRF KinEASE-TK), over 1000 nM; on FLT3 (HTRF KinEASE-TK) it was over 1000 nM; against c-Kit (HTRF KinEASE-TK), under 100 nM; at CSF1R (HTRF KinEASE-TK), over 1000 nM.

For the compound `Cc1cc(F)c(C(=O)N[C@H]2C[C@H]2F)cc1NC(=O)c1cnc(N)s1` [Example 136, 2-Amino-N-[4-fluoro-5-[[(1S,2R)-2-fluorocyclopropyl]carbamoyl]-2-methylphenyl]-1,3-thiazole-5-carboxamide], the IC50 against PDGFRα (HTRF KinEASE-TK) was 100 to 1000 nM; against PDGFRβ (HTRF KinEASE-TK) it was over 1000 nM; on FLT3 (HTRF KinEASE-TK) it was over 1000 nM; at c-Kit (HTRF KinEASE-TK), 100 to 1000 nM; at CSF1R (HTRF KinEASE-TK) it was over 1000 nM.

With `Cc1cc(F)c(C(=O)N[C@@H]2C[C@@H]2F)cc1NC(=O)c1cnc(N)s1` [Example 137], the IC50 was 100 to 1000 nM against PDGFRα (HTRF KinEASE-TK); over 1000 nM at PDGFRβ (HTRF KinEASE-TK); over 1000 nM against FLT3 (HTRF KinEASE-TK); under 100 nM at c-Kit (HTRF KinEASE-TK); over 1000 nM at CSF1R (HTRF KinEASE-TK).

As for `Cc1cc(F)c(C(=O)N[C@H]2C[C@@H]2F)cc1NC(=O)c1cnc(N)s1` [Example 138, 2-Amino-N-[4-fluoro-5-[[(1S,2S)-2-fluorocyclopropyl]carbamoyl]-2-methylphenyl]-1,3-thiazole-5-carboxamide], the half-maximal inhibitory concentration (IC50) at PDGFRα (HTRF KinEASE-TK) was 100 to 1000 nM; at PDGFRβ (HTRF KinEASE-TK) it was over 1000 nM; on FLT3 (HTRF KinEASE-TK), over 1000 nM; against c-Kit (HTRF KinEASE-TK), under 100 nM; at CSF1R (HTRF KinEASE-TK) it was over 1000 nM.

As to `Cc1cnc(NC(=O)c2cc(NC(=O)c3cnc(N)s3)c(C)cc2F)s1` [Example 160, 2-Amino-N-[4-fluoro-2-methyl-5-[(5-methyl-1,3-thiazol-2-yl)carbamoyl]phenyl]-1,3-thiazole-5-carboxamide], the concentration for half-maximal inhibition (IC50) against PDGFRα (HTRF KinEASE-TK) is over 1000 nM; on PDGFRβ (HTRF KinEASE-TK) it was 100 to 1000 nM; on FLT3 (HTRF KinEASE-TK), over 1000 nM; against c-Kit (HTRF KinEASE-TK), under 100 nM; at CSF1R (HTRF KinEASE-TK), 100 to 1000 nM.

Turning to `Cc1cc(F)c(C(=O)Nc2cnn(C3CC3)c2)cc1NC(=O)c1cnc(N)s1` [Example 161, 2-Amino-N-[5-[(1-cyclopropylpyrazol-4-yl)carbamoyl]-4-fluoro-2-methylphenyl]-1,3-thiazole-5-carboxamide], the IC50 is 100 to 1000 nM against PDGFRα (HTRF KinEASE-TK); 100 to 1000 nM on PDGFRβ (HTRF KinEASE-TK); over 1000 nM against FLT3 (HTRF KinEASE-TK); under 100 nM against c-Kit (HTRF KinEASE-TK); 100 to 1000 nM against CSF1R (HTRF KinEASE-TK).

For the compound `Cc1cc(F)c(C(=O)Nc2ccn(C)n2)cc1NC(=O)c1cnc(N)s1` [Example 163, 2-Amino-N-[4-fluoro-2-methyl-5-[(1-methylpyrazol-3-yl)carbamoyl]phenyl]-1,3-thiazole-5-carboxamide], the IC50 is over 1000 nM on PDGFRα (HTRF KinEASE-TK); over 1000 nM on PDGFRβ (HTRF KinEASE-TK); over 1000 nM at FLT3 (HTRF KinEASE-TK); under 100 nM against c-Kit (HTRF KinEASE-TK); over 1000 nM against CSF1R (HTRF KinEASE-TK).

Take `Cc1ncc(NC(=O)c2cc(NC(=O)c3cnc(N)s3)c(C)cc2F)s1` [Example 166, 2-Amino-N-[4-fluoro-2-methyl-5-[(2-methyl-1,3-thiazol-5-yl)carbamoyl]phenyl]-1,3-thiazole-5-carboxamide]: the IC50 was over 1000 nM at PDGFRα (HTRF KinEASE-TK); 100 to 1000 nM on PDGFRβ (HTRF KinEASE-TK); over 1000 nM at FLT3 (HTRF KinEASE-TK); under 100 nM against c-Kit (HTRF KinEASE-TK); 100 to 1000 nM on CSF1R (HTRF KinEASE-TK).

As for `Cc1cc(F)c(C(=O)Nc2cnn(C)c2)cc1NC(=O)c1cnc(N)s1` [Example 167, 2-Amino-N-[4-fluoro-2-methyl-5-[(1-methylpyrazol-4-yl)carbamoyl]phenyl]-1,3-thiazole-5-carboxamide], the IC50 against PDGFRα (HTRF KinEASE-TK) was over 1000 nM; against PDGFRβ (HTRF KinEASE-TK), over 1000 nM; against FLT3 (HTRF KinEASE-TK), over 1000 nM; against c-Kit (HTRF KinEASE-TK), under 100 nM; against CSF1R (HTRF KinEASE-TK), over 1000 nM.

For the compound `Cc1cc(F)c(C(=O)Nc2cnn(C(C)C)n2)cc1NC(=O)c1cnc(N)s1` [Example 171, 2-Amino-N-[4-fluoro-2-methyl-5-[(2-propan-2-yltriazol-4-yl)carbamoyl]phenyl]-1,3-thiazole-5-carboxamide], the IC50 was 100 to 1000 nM against PDGFRα (HTRF KinEASE-TK); 100 to 1000 nM at PDGFRβ (HTRF KinEASE-TK); over 1000 nM on FLT3 (HTRF KinEASE-TK); under 100 nM against c-Kit (HTRF KinEASE-TK); 100 to 1000 nM against CSF1R (HTRF KinEASE-TK).

Turning to `COC(c1ccc(NC(=O)c2cc(NC(=O)c3cnc(N)s3)c(C)cc2F)nc1)C1CC1` (centres unmarked) [Example 197, 2-Amino-N-[5-[[5-[cyclopropyl(methoxy)methyl]pyridin-2-yl]carbamoyl]-4-fluoro-2-methylphenyl]-1,3-thiazole-5-carboxamide], the IC50 was over 1000 nM against PDGFRα (HTRF KinEASE-TK); 100 to 1000 nM against PDGFRβ (HTRF KinEASE-TK); over 1000 nM at FLT3 (HTRF KinEASE-TK); under 100 nM against c-Kit (HTRF KinEASE-TK); over 1000 nM at CSF1R (HTRF KinEASE-TK).

These data come from US20250145606A1 (Arcus Biosciences, Inc., priority 2023, published 2025).
